{"source": "patent US20080227813A1", "about": "“Pharmaceutical compositions and methods for treating diseases associated with neurodegeneration” (priority 2006, published 2008)", "key": {"[1]": {"system": "healthy young male subjects", "test": "Multiple dose safety study in male healthy volunteers", "details": "human, 50 or 100 mg tid, 10 days", "quoted_text": "The study was designed as a randomized, double-blind and single-center study, without therapeutic benefit for the subjects.\nThe study was performed in 18 healthy subjects divided into 2 groups of 9 subjects (groups A and B). Subjects of group A received 50 mg Compound I as a single dose on the morning of day 1; then 50 mg Compound I tid on days 2 to 9; and a single 50 mg dose on the morning of day 10."}, "[2]": {"system": "human hepatocytes"}, "[3]": {"details": "rat, in vivo", "quoted_text": "The pharmacokinetic properties of total radioactivity were studied in male and female Wistar rats at the dose of 25.8 mg/kg ^14C labeled Compound I (equal to 16 mg/kg free base) administered intravenously and orally (Study B: Compound I/PRE SK-007). The concentrations of total radioactivity were monitored by liquid scintillation counting and whole-body autoradiographic methods in serum, organs, tissues, and excreta. All parts of the study were performed in both sexes (n=5 in both sexes)."}, "[4]": {"system": "mSOD1^(G93A) mice", "test": "Lifespan and disease progression in mSOD1(G93A) ALS mice", "type": "in vivo, mouse", "procedure": "Nat. Med. 10(4), p. 345-7 (2004), which is incorporated by reference.\nThus, Compound I-treated mice lived an average of 153 days (±2.6 SEM, n=7). This represents a significant increase in lifespan of over 22% (p=<0.001). The effect of beginning Compound I treatment at the time of disease onset was also tested by starting treatment at 70 days of age, when the first signs of locomotor defects are observed. Compound I treatment from 70 days of age extended the mean lifespan of mSOD1^(G93A) mice by 23 days, from 125 days (±1.8 SEM, n=18) in the untreated group to 148 days (±1.5 SEM, n=5) in the treated group. This represents an increase in lifespan of 18% (p=<0.001)."}, "[5]": {"system": "Beagle dogs", "test": "110-day repeated dose oral toxicity study in dogs", "type": "in vivo, dog", "procedure": "Evaluation […] involving control and three dose groups of 50, 80 and 160 mg/kg/day (equal to 31.0 mg/kg, 49.6 mg/kg and 99.2 mg/kg free base)."}, "[6]": {"system": "rats", "test": "180-day repeated dose oral toxicity study in rats", "procedure": "A six-month repeated dose oral toxicity study of Compound I was performed in rats involving a control (physiologic saline, n=32/sex) and dose groups of 200 mg/kg/day, 400 mg/kg/day and 900 mg/kg/day (equal to 124 mg/kg, 248 mg/kg and 558 mg/kg free base, n=20/sex, 20/sex and 32/sex, respectively). The test item was dissolved in distilled water. Treatment was carried out by a stomach tube daily. The application volume was adjusted weekly according to the animal's body weight changes.\nClinical observations were made once daily. Body weight and food consumption were measured and evaluated weekly. Urine collection, blood sampling for hematological, clinical chemistry evaluation and gross necropsy were conducted at the end of the treatment period. Full histopathologic examination was performed on the preserved organs and tissues of the vehicle control and high dose groups. In addition, the liver, kidneys, testes, epididymis and organs showing macroscopic alterations were examined microscopically in the low and medium doses.\nCompound I content (pre-dose concentration) was determined in serum on days 1, 49, 111 and 173. The serum samples were analyzed by liquid/liquid extraction, and ion-pair HPLC. Twelve animals per sex of the controls and high dose groups were kept alive for a 28-day post-treatment recovery period. They were processed in the same way as animals at the termination of treatment."}, "[7]": {"system": "dog liver cells"}, "[8]": {"system": "CRL: NMRI BR mice", "details": "mouse, 5000 mg/kg", "procedure": "On the basis of acute oral toxicity of test item Compound I in CRL: NMRI BR mice the dose level 5000 mg/kg (equal to 3101 mg/kg free base) was examined in the micronucleus test."}, "[9]": {"system": "Salmonella typhimurium strains TA98, TA100, TA1537, TA1535 and Escherichia coli WP2 uvrA", "test": "Genotoxicity in bacterial assays", "type": "cell-based", "details": "up to 5000 μg test item/plate, with and without rat liver fraction"}, "[10]": {"system": "healthy young male subjects", "details": "human, single oral doses 50-800 mg", "procedure": "The study was conducted in 12 volunteers, in accordance with the Helsinski Declaration, European Good Clinical Practices and Huriet law. The volunteers were divided into two groups (n=6 in each group).\nThe dose was administered orally, under medical supervision, after a 10 h abstinence from food. No concomitant medication was allowed within the period of time from the screening examination to 24 h after the last administration."}, "[11]": {"test": "28-day repeated dose oral toxicokinetic study in rats", "details": "for Tmax: rat, in vivo, po", "procedure": "A 28-day repeated dose oral toxicokinetic study of Compound I was performed in rats involving dose groups of 375 mg/kg, 750 mg/kg and 1500 mg/kg/day (equal to 233 mg/kg, 465 mg/kg and 930 mg/kg free base) (n=5 animals/sex/group). Blood samples were taken after the first and after the last doses to determine the kinetic parameters."}, "[12]": {"system": "CRL:NMRI BR mice", "test": "Acute oral toxicity in mice", "type": "in vivo", "details": "mouse", "procedure": "All animal toxicology studies were performed at Toxicological Research Centre (Veszprém, Hungary) using protocols compliant with OECD guidelines and Principles of Good Laboratory Practice. Following is a summary of the studies conducted.\nAcute oral toxicity studies were performed in rats (CRL(WI:)BR) and in mice (CRL: NMRI BR). A control and five dose groups were involved in the rat study at dose levels of 2000 mg/kg, 2600 mg/kg, 3400 mg/kg, 4400 mg/kg and 5700 mg/kg (equal to 1241 mg/kg, 1613 mg/kg, […], 2729 mg/kg and 3535 mg/kg free base, n=5 animals/sex/group)."}, "[13]": {"details": "rat, in vivo", "remark": "listed apart in the source"}, "[14]": {"details": "treatment from 70 days of age, vs untreated"}, "[15]": {"details": "dog, 50, 80, 160 mg/kg/day oral"}}, "note": "Where two headings read alike, the source gives them in different places."}
{"smiles": "[O-][n+]1cccc(/C(Cl)=N/OC[C@H](O)CN2CCCCC2)c1", "note": "[Compound I, N-[2-hydroxy-3-(1-piperidinyl)-propoxy]-pyridine-1-oxide-3-carboximidoyl chloride]", "values": [{"measurement": "serious adverse events or deaths", "setting": "[1]", "result": "no serious adverse events or deaths"}, {"measurement": "amount of metabolite No. 1", "setting": "[2]", "result": "0.64 % of the total radioactivity"}, {"measurement": "amount of metabolite No. 2", "setting": "[2]", "result": "0.60 % of the total radioactivity"}, {"measurement": "amount of metabolite No. 3", "setting": "[2]", "result": "0.80 % of the total radioactivity"}, {"measurement": "amount of metabolite No. 4", "setting": "[2]", "result": "0.62 % of the total radioactivity"}, {"measurement": "amount of metabolite No. 5 (bimoclomol)", "setting": "[2]", "result": "2.59 % of the total radioactivity"}, {"measurement": "clearance", "setting": "[2]; human, hepatocytes", "result": 0.040, "unit": "mL/h"}, {"measurement": "t1/2", "setting": "[2]; human, hepatocytes", "result": 17.2, "unit": "h"}, {"measurement": "dose eliminated with bile", "setting": "[3]", "result": "20-30 % of dose"}, {"measurement": "dose remaining in the rats", "setting": "[3]", "result": "~20", "unit": "%"}, {"measurement": "radioactivity by 3rd post-treatment hour, share of first measured concentration", "setting": "[3]; iv, 25.8 mg/kg", "result": 20, "unit": "%"}, {"measurement": "organ radioactivity at 4th hour, share of 45 min values", "setting": "[3]; po", "result": "20-60%"}, {"measurement": "penetration through the blood-brain barrier", "setting": "[3]; po", "result": "weak penetration through the blood-brain barrier"}, {"measurement": "increase of radioactivity in organs and tissues", "setting": "[3]; po, 25.8 mg/kg", "result": "4-12 fold"}, {"measurement": "time of first maximal serum concentration of radioactivity", "setting": "[3]; po, 25.8 mg/kg", "result": "≤ 1", "unit": "h"}, {"measurement": "total exposure of last day (0-24 h AUD) vs first day", "setting": "[3]; po, 25.8 mg/kg", "result": "more than two times higher"}, {"measurement": "average lifespan", "setting": "[4]; 10 mg/kg ip daily from 35 days of age, untreated 125 days", "result": 153, "unit": "days"}, {"measurement": "mean lifespan", "setting": "[4]; 10 mg/kg ip daily from 70 days of age, untreated 125 days", "result": 148, "unit": "days"}, {"measurement": "progression of disease", "setting": "[4]; ALS transgenic mouse model", "result": "significantly delayed the progression of disease"}, {"measurement": "extension of survival", "setting": "[4]; given pre-symptomatically and at disease onset, study rationale statement", "result": "five weeks"}, {"measurement": "increase in lifespan", "setting": "[4]; treatment from 35 days of age, vs untreated", "result": "over 22%"}, {"measurement": "extension of mean lifespan", "setting": "[4]; [14]", "result": 23, "unit": "days"}, {"measurement": "increase in lifespan", "setting": "[4]; [14]", "result": 18, "unit": "%"}, {"measurement": "ECG and ophthalmological alterations", "setting": "[5]; [15]", "result": "No ECG and opthalmological alterations"}, {"measurement": "mortality", "setting": "[5]; [15]", "result": "No animals died"}, {"measurement": "NOEL", "setting": "[5]; dog, both sexes, oral once daily for 112 days", "result": 50, "unit": "mg/kg/day"}, {"measurement": "mortality", "setting": "[6]; rat, 200, 400, 900 mg/kg/day oral, six months", "result": "No test item related mortality occurred"}, {"measurement": "NOEL", "setting": "[6]; rat, both sexes, six-month oral", "result": 200, "unit": "mg/kg/day"}, {"measurement": "accumulation in serum", "setting": "[6]; rat, in vivo, po", "result": "No accumulation"}, {"measurement": "amount of metabolite No. 3", "setting": "[7]", "result": "4.9 % of the total radioactivity"}, {"measurement": "amount of metabolite No. 4", "setting": "[7]", "result": "3.3 % of the total radioactivity"}, {"measurement": "clearance", "setting": "[7]; dog, hepatocytes", "result": 0.055, "unit": "mL/h"}, {"measurement": "t1/2", "setting": "[7]; dog, hepatocytes", "result": 12.6, "unit": "h"}, {"measurement": "mutagenicity in vivo", "setting": "[8]", "result": "non-mutagenic"}, {"measurement": "number of micronucleated polychromatic erythrocytes (MPCEs)", "setting": "[8]; in vivo", "result": "did not induce a significant increase"}, {"measurement": "mutagenic activity", "setting": "[9]", "result": "no mutagenic activity"}, {"measurement": "changes in safety parameters (laboratory parameters, vital signs, ECGs)", "setting": "[10]", "result": "No changes in any safety parameters"}, {"measurement": "serious adverse events or deaths", "setting": "[10]", "result": "no serious adverse events or deaths"}, {"measurement": "Cmax", "setting": "[11]; male rats, 750 mg/kg/day oral, Day 28", "result": 20410, "unit": "ng/mL"}, {"measurement": "Tmax", "setting": "[11]; 375 mg/kg", "result": 1, "unit": "h"}, {"measurement": "Tmax", "setting": "[11]; 375 mg/kg/day", "result": 0.5, "unit": "h"}, {"measurement": "Tmax", "setting": "[11]; 750 mg/kg", "result": 2, "unit": "h"}, {"measurement": "Tmax", "setting": "[11]; 1500 mg/kg", "result": 2, "unit": "h"}, {"measurement": "Oral LD50 value", "setting": "[12]; female, by base", "result": ">3101 - by base mg/kg"}, {"measurement": "Oral LD50 value", "setting": "[12]; female, by citrate", "result": ">5000 - by citrate mg/kg"}, {"measurement": "Oral LD50 value", "setting": "[12]; male, by base", "result": ">3101 - by base mg/kg"}, {"measurement": "Oral LD50 value", "setting": "[12]; male, by citrate", "result": ">5000 - by citrate mg/kg"}, {"measurement": "clearance", "setting": "[13]", "result": "higher than the hepatic clearance"}, {"measurement": "time of peak serum values", "setting": "[13]; po, 25.8 mg/kg", "result": 15, "unit": "min"}]}
